In series [1] the test system is human PBMC, tumor necrosis factor alpha (TNF-alpha).
Another series deals with female BALB/C mice. Description: In Vivo Detection of Innate Immune Response Study - human G-CSF protein in serum. The note with it: human G-CSF in mouse serum; I.M.; 8 hours after dosing. The method, then:
Blood is collected at 8 hours after dosing.

Series [2] concerns female BALB/C mice, interferon-alpha (IFN-alpha). As to conditions: mouse, in vivo.
In series [3] the test system is PBMC, interferon-alpha (IFN-alpha). Description: 2′Fluoro Chemistries in PBMC - IFN-alpha production. In kind it is cell-based, human. As to conditions: G-CSF modified mRNA, ELISA, average of 3 donors. (In an ELISA, binding on a coated surface is turned into a signal by an enzyme label.)
In series [4] the test system is PBMC, tumor necrosis factor-alpha (TNF-alpha). Nature of the series: 2′Fluoro Chemistries in PBMC - TNF-alpha production. In kind it is cell-based, human. As to conditions: G-CSF modified mRNA, ELISA, average of 2 donors.
Series [5] has as its target T1, mutant T7 polymerase (Durascribe T7 Transcription kit) (Escherichia phage T7, UniProt P00573, Y639F).
T1 construct: purchased Epicentre, Madison, Wis; DS010925
The note with it: Table 48 non-naturally occurring, in vitro transcription using mutant T7 polymerase. The method, then: (§1) The luciferase and G-CSF modified mRNA were also subjected to an enzymatic capping reaction and each modified mRNA capping reaction was evaluated for yield by spectrophometic measurement (OD260) and correct size assessed using bioanalyzer.

The subject of a further series is HeLa cells. Description: In vitro Screening in HeLa Cells - luciferase (RLU). In kind it is cell-based, human. Also noted: key to Protein (Luc; HeLa): the protein production of HeLa is judged by “+,” “+/−” and “−”; the protein production of HeLa is judged by “+,” “+/−” and “−”; the protein production of HeLa is judged by “+,” “+/−” and “−”. The method, then: The 2′Fluoro-modified mRNA were then transfected into HeLa cells to assess protein production in a cell context and the same mRNA were also assessed in a cell-free rabbit reticulocyte system. A control of unmodified luciferase (natural luciferase) was used for both transcription experiments, a control of untreated and mock transfected (Lipofectamine 2000 alone) were also analyzed for the HeLa transfection and a control of no RNA was analyzed for the rabbit reticulysates.
For the HeLa transfection experiments, the day before transfection, 20,000 HeLa cells (ATCC no. CCL-2; Manassas, Va.) were harvested by treatment with Trypsin-EDTA solution (LifeTechnologies, Grand Island, N.Y.) and seeded in a total volume of 100 ul EMEM medium (supplemented with 10% FCS and 1× Glutamax) per well in a 96-well cell culture plate (Corning, Manassas, Va.). The cells were grown at […] in 5% CO2 atmosphere overnight. […] Lipofectamine 2000 (LifeTechnologies, Grand Island, N.Y.) was used as transfection reagent and 0.2 ul were diluted in 10 ul final volume of OPTI-MEM. After […] of incubation at room temperature, both solutions were combined and incubated an additional 15 minute at room temperature. Then the 20 ul combined solution was added to the 100 ul cell culture medium containing the HeLa cells and incubated at room temperature. After 18 to 22 hours of incubation cells expressing luciferase were lysed with 100 ul of Passive Lysis Buffer (Promega, Madison, Wis.) according to manufacturer instructions. Aliquots of the lysates were transferred to white opaque polystyrene 96-well plates (Corning, Manassas, Va.) and combined with 100 ul complete luciferase assay solution (Promega, Madison, Wis.). The lysate volumes were adjusted or diluted until no more than 2 mio relative light units (RLU) per well were detected for the strongest signal producing samples and the RLUs for each chemistry tested are shown in Table 42. The plate reader was a BioTek Synergy H1 (BioTek, Winooski, Vt.). The background signal of the plates without reagent was about 200 relative light units per well.
To evaluate using of 2′fluoro-modified mRNA in combination with other modification a series of mRNA were transcribed using either wild-type T7 polymerase (non-fluoro-containing compounds) or using mutant T7 polymerases (fluyoro-containing compounds) as described in Example 86. All modified mRNA were tested by in vitro transfection in HeLa cells.
After 18 to 22 hours of incubation cells expressing luciferase were lysed with 100 ul of Passive Lysis Buffer (Promega, Madison, Wis.) according to manufacturer instructions. Aliquots of the lysates were transferred to white opaque polystyrene 96-well plates (Corning, Manassas, Va.) and combined with 100 ul complete luciferase assay solution (Promega, Madison, Wis.). The lysate volumes were adjusted or diluted until no more than 2 mio relative light units (RLU) per well were detected for the strongest signal producing samples and the RLUs for each chemistry tested are shown in Table 44. The plate reader was a BioTek Synergy H1 (BioTek, Winooski, Vt.). The background signal of the plates without reagent was about 200 relative light units per well.

A further series has as its target wild-type T7 polymerase (Escherichia phage T7, UniProt P00573). Description: In Vitro Transcription with Wild-Type T7 Polymerase (transcription and capping yield). As to conditions: Table 48 non-naturally occurring, Pass/Fail. The method, then: as §1
Series [6] concerns Rabbit Reticulocyte Lysate. Nature of the series: In Vitro Screening in Rabbit Reticulocyte Lysates - luciferase (RLU). In kind it is biochemical. The note with it: 250 ng 2′-fluoro-containing luciferase mRNA, 60 minutes, 30° C., background about 160 RLU. How it is done:
The diluted luciferase was added to 40 ul of freshly prepared Rabbit Reticulocyte Lysate and the in vitro translation reaction was done in a standard 1.5 mL polypropylene reaction tube (Thermo Fisher Scientific, Waltham, Mass.) at 30° C. in a dry heating block. The translation assay was done with the Rabbit Reticulocyte Lysate (nuclease-treated) kit (Promega, Madison, Wis.) according to the manufacturer's instructions. The reaction buffer was supplemented with a one-to-one blend of provided amino acid stock solutions devoid of either Leucine or Methionine resulting in a reaction mix containing sufficient amounts of both amino acids to allow effective in vitro translation.
After 60 minutes of incubation, the reaction was stopped by placing the reaction tubes on ice. […] The volumes of the in vitro translation reactions were adjusted or diluted until no more than 2 mio relative light units (RLUs) per well were detected for the strongest signal producing samples and the RLUs for each chemistry tested are shown in Table 29. The plate reader was a BioTek Synergy H1 (BioTek, Winooski, Vt.). […]
The 2′Fluoro-modified mRNA were then transfected into HeLa cells to assess protein production in a cell context and the same mRNA were also assessed in a cell-free rabbit reticulocyte system. […]

T1 sequence (P00573 whole entry Y639F): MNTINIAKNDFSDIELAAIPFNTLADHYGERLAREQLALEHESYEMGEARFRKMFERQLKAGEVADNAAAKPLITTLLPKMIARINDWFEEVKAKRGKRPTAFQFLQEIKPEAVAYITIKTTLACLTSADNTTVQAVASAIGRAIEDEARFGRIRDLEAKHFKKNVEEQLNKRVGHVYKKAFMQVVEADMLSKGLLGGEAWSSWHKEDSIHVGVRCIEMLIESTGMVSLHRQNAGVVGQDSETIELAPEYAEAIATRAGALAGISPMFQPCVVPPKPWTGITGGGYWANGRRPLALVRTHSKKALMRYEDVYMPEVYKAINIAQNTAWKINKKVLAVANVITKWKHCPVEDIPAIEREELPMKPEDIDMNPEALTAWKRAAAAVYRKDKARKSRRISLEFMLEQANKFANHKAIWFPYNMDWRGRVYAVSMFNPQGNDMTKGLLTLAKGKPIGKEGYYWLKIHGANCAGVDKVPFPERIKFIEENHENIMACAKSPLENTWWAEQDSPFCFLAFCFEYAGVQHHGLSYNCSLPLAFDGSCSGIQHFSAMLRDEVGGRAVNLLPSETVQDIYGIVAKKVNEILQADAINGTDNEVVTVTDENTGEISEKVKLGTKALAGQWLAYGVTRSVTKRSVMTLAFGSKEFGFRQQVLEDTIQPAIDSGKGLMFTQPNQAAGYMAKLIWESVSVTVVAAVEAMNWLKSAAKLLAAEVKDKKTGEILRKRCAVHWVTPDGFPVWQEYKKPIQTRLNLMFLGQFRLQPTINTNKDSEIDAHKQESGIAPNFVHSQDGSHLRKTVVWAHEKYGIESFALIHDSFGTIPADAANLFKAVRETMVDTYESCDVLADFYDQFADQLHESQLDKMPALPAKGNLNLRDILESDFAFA
Sequence of wild-type T7 polymerase (P00573 whole entry): as the sequence (P00573 whole entry Y639F) above, with F639Y counted along it

Consider `CCOCc1nc2c(N)nc3ccccc3c2n1CC(C)(C)O` [Compound R-848], for which the “TNF-alpha: 3 Donor Average” value in series [1] came to 1477 pg/mL. Also, the G-CSF protein with female BALB/C mice was 3.4 pg/mL. The IFN-alpha expression in [2] is 40.97 pg/mL. The “IFN-alpha: 3 Donor Average” value in series [3] turned out to be 45 pg/mL. For the same compound, in series [4], the “TNF-alpha: 2 Donor Average (pg/ml)” value is on record as 8,235 pg/ml.
Turning to 2′-F-adenosine, in series [5], the “IVT (G-CSF), second result **” value is “Fail/Fail**” and the “IVT (Luc), second result **” value is listed as “Pass”. Further, the “Protein (Luc; HeLa)” value in the series with HeLa cells (Table 48 non-naturally occurring, ** mutant T7 polymerase) is “−**”. For the same compound, on wild-type T7 polymerase (G-CSF mRNA in vitro transcription), the “IVT (G-CSF), first result” value is “Fail/Fail**”. In addition, the “IVT (Luc), first result” value at wild-type T7 polymerase (luciferase mRNA in vitro transcription) is on record as “Fail”.
On to “Natural Luciferase: natural luciferase mRNA (SEQ ID NO: 3), Cap1 [reference compound]”, for which the RLU in series [6] is reported as 2,159,968 RLU; with HeLa cells (83 ng 2′fluoro-containing luciferase mRNA, Lipofectamine 2000, HeLa cells) it was 133,853.5 RLU; in the series on HeLa cells (83 ng luciferase mRNA with combination of modifications, HeLa cells, 18 to 22 hours, background about 200 RLU), 30,801 RLU.

The record behind these values is patent publication US20130123481A1, “MODIFIED NUCLEOSIDES, NUCLEOTIDES, AND NUCLEIC ACIDS, AND USES THEREOF” (MODERNA THERAPEUTICS, priority 2011, published 2013).
